Measured values reported in patent US20220251158A1, “INTERMEDIATE FILAMENT-DERIVED PEPTIDES AND THEIR USES” (UNIVERSITAT DE LLEIDA, priority 2019, published 2022).

Tested on: different populations of leukocytes
Assay: Annexin V expression in leukocytes with 9 amino acid core peptides
Assay type: cell-based
Details: 9 amino acid peptide added directly to cell culture
Procedure: For cell death and apoptosis analysis, 400.000 of primary cells or 100.000 of cell line cells were incubated in 96-well plates in 200 μL of complete culture medium for 24 h at 37° C. and 5% CO2 in the absence or presence of 55 μM of different peptides. After 1 hour, 24 hours or 48 hours, apoptosis was measured by CFBlue Annexin V Apoptosis Detection Kit with PI (ANXVKCFB-100T, Immunostep), following kit protocol. For cleaved caspasa-3 intracellular staining, mononuclear cells were permeabilised following the manufacturer's instructions of the FoxP3 Staining Buffer Set (00-5523-00, eBioscience) and the cleaved caspasa-3-Pacific Blue (8788S, Cell Signalling) was used for staining. Cell suspensions were analysed by flow cytometry using FACS CANTO II instrumentation (BD, Biosciences, San Jose, Calif.) and Flowjo (version 8.7) software.

| Sequence | induction of the expression of annexin V |
| --- | --- |
| VKLALDIEI (Variant of core sequence - GFAP9) | not to be positive |
| VKMALDIEI (Variant of core sequence - Per9) | not to be positive |
| VKMALDVEI (Variant of core sequence - Des9) | not to be positive |
